This is an account of results in US6787141B1, “Peptide having for fibrinogen fragment E activity, analogs, antibodies and uses thereof” (The University Court of The University of Aberdeen, priority 1999, dated 2004).

Experiment [1] has as its system chick chorioallantoic membrane (CAM). Kind of experiment: chick chorioallantoic membrane (CAM) cell proliferation assay (DNA synthesis, tritiated thymidine). It counts as in vivo. How it is done: Cell proliferation was measured using the chick chorioallantoic membrane (CAM) model as described previously (4, 29, 30).The assay used is based on quantitative measurement of DNA synthesis in the CAM after exposure to control and test substances 18 h after application in liquid form to the whole “dropped” area of each CAM (4, 29). This assay is a measure of changes in CAM vascularity (30).
The rabbit and rat antisera were mixed with active fibrin degradation products. These were applied to the chick CAM with a positive control (fibrin degradation products) and a negative control (the antibody alone). The CAM was processed for incorporation of tritiated thymidine.
The rabbit antisera were then tested for ability to block the stimulatory activity of human FDP on the chick CAM model. The assay used was based on quantitative measurement of DNA synthesis in the CAM after exposure to control and test substances 18 h after application in liquid form to the whole “dropped” area of each CAM (4,29). This assay is a measure of changes in CAM vascularity (30). Anti phage antisera, raised by relatively short term immunisation of rabbits, were used at a 1/2 dilution and admixed with FDP used at a concentration of approximately 1.95 mg/ml diluted before use to 1/10. Controls included buffer only and antiserum only groups of CAMs. After filter sterilisation, 0.3 ml was added onto each CAM dropped surface.

A further experiment concerns Chick fibroblasts. Briefly: cell immunohistochemistry. Type of experiment: cell-based. To be noted: 2 hours exposure. How it is done:
Chick fibroblasts were cultured in a 25 cm^2 flask (Nunc) until confluent (approximately 3×10^6 cells). The cells were washed in PBS and then trypsinised and diluted to 3×10^5 cells per ml in Dulbecco modified medium with 10% foetal calf serum. […] of the cells suspension was plated into each well of a Nunc culture well slide. The cells were incubated overnight to allow adhesion and recovery from the passaging. Digoxygenin labelled fibrin fragment E was added to a final concentration of 8 mg per ml. Control wells contained unconjugated digoxygenin and PBS.
The cells were rinsed after 2 hours with PBS then washed 3 times in TBS followed by one wash in distilled water. The cells were then incubated for 2 hours with sheep anti-digoxygenin alkaline phosphatase. The slides were then washed three times in TBS and developed with NBT and BCIP in bicarbonate buffer pH 9.8. The slides were air dried and then mounted for observation of membrane staining under the microscope.

Experiment [2] deals with Chick fibroblasts, Cos7, mouse 3T3 and human embryonic lung cells (HEL). Briefly: cell binding assays. It counts as cell-based. To be noted: each of the cell types; 6 hours at 37° C. How it is done:
Chick fibroblasts, Cos7, mouse 3T3 and human embryonic lung cells (HEL) were cultured in a 25 cm^2 flask (Nunc) until confluent (approximately 3×10^6 cells). The cells were trypsinised and resuspended at concentration of 1.3×10^5 cells/ml. 200 μl of this cell suspension was added to each well of a 96 well culture plate (Nunc). The cells were incubated overnight at 37° C. to allow adherence and recovery. The cells were then divided into three sections, digoxygenin controls, PBS controls and digoxygenin labelled fragment E tests. Increasing concentrations of digoxygenin and digoxygenin labelled fibrin fragment E were applied from 0-30 mg per well. The plates were incubated for 6 hours at 37° C. under culture conditions.
The plates were emptied of media and washed three times with PBS. The cells were then incubated for 2 hours with sheep antidigoxygenin alkaline phosphatase and developed with p-nitrophenyl phosphate in bicarbonate buffer pH 9.8. The plates were read on a Titertek Multiscan plate reader at 405 nm.

As to CRAHSFGSPRPLPVV [WTM110], in experiment [1] (FIG. 4 legend, concentration not given), the “inhibition of the stimulatory effect of FDP” value is reported as “inhibits”. Further, the “inhibition of FDP induced cell proliferation” value is reported as “little inhibition” in experiment [1] (peptide at 7.5 μg/ml) and “inhibition was demonstrated with cell proliferation reduced to control level” in experiment [1] (peptide at 15 μg/ml).

B1: fibrin fragment E: fibrin fragment E, labelled with digoxygenin ester for detection (protein)
chain 1: GPRVVERHQSACKDSDWPFCSDEDWNYKCPSGCRMKGLIDEVNQDFTNRINKLKNSLFEYQK
chain 2: GHRPLDKKREEAPSLRPAPPPISGGGYRARPAKAAATQKKVERKAPDAGGCLHADPDLGVLCPTGCQLQEALLQQERPIRNSVDELNNNVEAVSQTSSSSFQYMYLLK
chain 3: YVATRDNCCILDERFGSYCPTTCGIADFLSTYQTKVDKDLQSLEDILHQVENKTSEVKQLIK
Regarding B1, the “binding to cells (membrane staining)” value in the experiment with Chick fibroblasts is listed as “shown to bind”. In addition, the “binding to cells (absorbance at 405 nm compared to control preparations)” value in experiment [2] is reported as “high absorbance”.
